# Results reported in paper PMC4895043, “Biological Activities of Aerial Parts Extracts of Euphorbia characias” (BioMed Research International, 2016).
# Target: T1, HIV-1 RT (HIV-1 M:B_HXB2R, UniProt P04585)
# T1 construct: gene gag-pol; mature RT cut from Gag-Pol polyprotein
# Assay: RNase H inhibition assay
# Type: biochemical
# Conditions: RNase H activity; read-out: IC50 (μg/mL)^∗ / HIV-1 / RNase H
# Description: RNase H inhibition assay on HIV-1 RT
substance,measurement,value
RDS1759,IC50,7.1 ± 0.5 µM
